In ChEMBL document CHEMBL1126235, “Benzothiadiazine dioxides: A new class of potent angiotensin-II (AT1) receptor antagonists” (Bioorg Med Chem Lett, 1992) one finds Ki and Kb data, which are given here for ten molecules.

Assay [1] has as its target T1, Angiotensin II receptor (AT-1) type-1 (Rattus norvegicus, UniProt P29089+P25095).
T1 sequence (P29089 whole entry): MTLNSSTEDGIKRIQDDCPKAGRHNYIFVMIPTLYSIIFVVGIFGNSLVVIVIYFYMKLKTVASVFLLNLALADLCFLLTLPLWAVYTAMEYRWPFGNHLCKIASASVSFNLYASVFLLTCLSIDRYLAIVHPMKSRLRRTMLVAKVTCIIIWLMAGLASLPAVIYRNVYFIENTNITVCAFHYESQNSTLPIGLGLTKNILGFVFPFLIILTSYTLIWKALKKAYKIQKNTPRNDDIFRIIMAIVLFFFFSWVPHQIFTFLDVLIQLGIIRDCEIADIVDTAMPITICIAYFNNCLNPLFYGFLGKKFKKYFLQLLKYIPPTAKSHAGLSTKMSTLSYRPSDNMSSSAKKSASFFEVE
T1 sequence (P25095 whole entry): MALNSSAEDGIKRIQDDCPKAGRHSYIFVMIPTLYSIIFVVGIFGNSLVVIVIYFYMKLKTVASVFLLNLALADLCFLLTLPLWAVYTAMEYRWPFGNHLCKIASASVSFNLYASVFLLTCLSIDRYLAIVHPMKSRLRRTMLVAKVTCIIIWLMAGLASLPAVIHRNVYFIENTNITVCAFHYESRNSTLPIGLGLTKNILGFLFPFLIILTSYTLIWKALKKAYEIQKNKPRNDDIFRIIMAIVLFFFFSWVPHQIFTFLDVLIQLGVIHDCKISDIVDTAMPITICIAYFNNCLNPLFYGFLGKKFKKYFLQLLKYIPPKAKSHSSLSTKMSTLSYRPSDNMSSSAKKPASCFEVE
Kind of assay: Binding against Angiotensin II receptor in a radioligand binding assay using [125I]-Sar1-Ile8 angiotensin-II as radioligand in rat adrenal cortical membranes. It is filed as cell membranes.

The species named for a further assay is Oryctolagus cuniculus. Kind of assay: Compound was tested for functional antagonism of angiotensin-II induced contraction in isolated rabbit aorta.

In the case of `CCSC1=NS(=O)(=O)c2cc(C)cnc2N1Cc1ccc(-c2ccccc2-c2nn[nH]n2)cc1`, in assay [1], the Ki (as a rule, the dissociation constant of the complex between target and ligand, obtained from inhibition or displacement) is given as 0.8 nM. In addition, in the assay listed under Oryctolagus cuniculus, the antagonist equilibrium constant (Kb) (usually the equilibrium dissociation constant of an antagonist, usually derived from a functional assay) turned out to be 0.6 nM.
In the case of `CCCSC1=NS(=O)(=O)c2cc(C)cnc2N1Cc1ccc(-c2ccccc2-c2nn[nH]n2)cc1`, the Ki in assay [1] is 0.6 nM. In the assay listed under Oryctolagus cuniculus, this molecule returned a Kb of 11 nM.
The matching figures for `CCCSC1=Nc2ccccc2S(=O)(=O)N1Cc1ccc(-c2ccccc2-c2nn[nH]n2)cc1`: 57 nM and 640 nM.
The matching figures for `CCCCC1=NS(=O)(=O)c2ccccc2N1Cc1ccc(-c2ccccc2C(=O)O)cc1`: 550 nM and 130 nM.
Molecule `CCCCC1=Nc2ccccc2S(=O)(=O)N1Cc1ccc(-c2ccccc2C(=O)O)cc1` registered a Ki in assay [1] of 230 nM. Besides, the Kb in the assay listed under Oryctolagus cuniculus was determined as 160 nM.
Regarding `CCCSC1=NS(=O)(=O)c2ccc(C(=O)O)cc2N1Cc1ccc(-c2ccccc2-c2nn[nH]n2)cc1`, the Ki in assay [1] is 8.5 nM. The molecule also returned a Kb in the assay filed under Oryctolagus cuniculus of 0.08 nM.
With `CCCSC1=NS(=O)(=O)c2ccccc2N1Cc1ccc(-c2ccccc2C(=O)O)cc1`, in assay [1], the inhibition constant Ki was determined as 180 nM. Also, in the assay listed under Oryctolagus cuniculus, the Kb was found to be 20 nM.
The corresponding values for `CCCSC1=Nc2ccccc2S(=O)(=O)N1Cc1ccc(-c2ccccc2C(=O)O)cc1` are 4900 nM and 1200 nM.
The corresponding values for `CCCSC1=NS(=O)(=O)c2ccccc2N1Cc1ccc(-c2ccccc2-c2nn[nH]n2)cc1` are 4.8 nM and 93 nM.
`CCCCc1nc(Cl)c(CO)n1Cc1ccc(-c2ccccc2-c2nnn[nH]2)cc1` [LOSARTAN] displayed an antagonist dissociation constant (Kb) in the assay filed under Oryctolagus cuniculus of 2.6 nM.
